Test results: US7863315B2, “2-indolinone derivatives as selective histone deacetylase inhibitors” (Shenzhen Chipscreen Biosciences, Ltd., priority 2008, dated 2011)

Columns and labels:
Type in all cases: cell-based
[1] = system: HDAC class I (p21 reporter gene); assay: HDAC subtype reporter gene assay, p21-promoter luciferase in HeLa cells; details: Homo sapiens, M-HeLa, read-out: % of SAHA Response for HDAC class I at 10 μM (p21 reporter gene), 24 hours
Procedure: (§1) Measurement of inhibition of HDAC subtypes activity in cells by reporter gene assay: HDAC subtype selectivity inhibition assay of tested compounds was carried out by several reporter gene assays experiments. Briefly, HeLa cells were seeded in 96-well plates the day before transfection to give a confluence of 50-80%. Cells were transfected with one of reporter gene plasmids containing a promoter sequences or response elements upstream of a luciferase gene construct using FuGene6 transfection reagent according to the manufacturer's instructions (Roche). The promoters or response elements including p21-promoter, gdf11-promoter, MEF-binding element (MEF2), Nur77-promoter were fused upstream to the luciferase gene reporter construct. For normalizing the transfection efficiency, a GFP expression plasmid was cotransfected. Cells were allowed to express protein for 24 hours followed by addition of individual compounds or the vehicle (DMSO). 24 hours later, the cells were harvested and the luciferase assays were performed using the luciferase assay kit according to the manufacturer's instructions (Promega). To normalize the data from the luciferase assays, GFP activity from transfected cells was measured in a microtiter-plate reading fluorimeter capable of excitation at a wavelength at 485 nm and detection of emitted light at 527 nm.

[2] = molecular target: T1, HDAC6 (α-tubulin acetylation) (Homo sapiens, UniProt Q9UBN7); assay: ELISA assay of acetylation of α-tubulin in HeLa cells; details: M-HeLa, 24 hours
T1 construct: endogenous in cells; host or cells: HeLa
T1 sequence (Q9UBN7 1-1215): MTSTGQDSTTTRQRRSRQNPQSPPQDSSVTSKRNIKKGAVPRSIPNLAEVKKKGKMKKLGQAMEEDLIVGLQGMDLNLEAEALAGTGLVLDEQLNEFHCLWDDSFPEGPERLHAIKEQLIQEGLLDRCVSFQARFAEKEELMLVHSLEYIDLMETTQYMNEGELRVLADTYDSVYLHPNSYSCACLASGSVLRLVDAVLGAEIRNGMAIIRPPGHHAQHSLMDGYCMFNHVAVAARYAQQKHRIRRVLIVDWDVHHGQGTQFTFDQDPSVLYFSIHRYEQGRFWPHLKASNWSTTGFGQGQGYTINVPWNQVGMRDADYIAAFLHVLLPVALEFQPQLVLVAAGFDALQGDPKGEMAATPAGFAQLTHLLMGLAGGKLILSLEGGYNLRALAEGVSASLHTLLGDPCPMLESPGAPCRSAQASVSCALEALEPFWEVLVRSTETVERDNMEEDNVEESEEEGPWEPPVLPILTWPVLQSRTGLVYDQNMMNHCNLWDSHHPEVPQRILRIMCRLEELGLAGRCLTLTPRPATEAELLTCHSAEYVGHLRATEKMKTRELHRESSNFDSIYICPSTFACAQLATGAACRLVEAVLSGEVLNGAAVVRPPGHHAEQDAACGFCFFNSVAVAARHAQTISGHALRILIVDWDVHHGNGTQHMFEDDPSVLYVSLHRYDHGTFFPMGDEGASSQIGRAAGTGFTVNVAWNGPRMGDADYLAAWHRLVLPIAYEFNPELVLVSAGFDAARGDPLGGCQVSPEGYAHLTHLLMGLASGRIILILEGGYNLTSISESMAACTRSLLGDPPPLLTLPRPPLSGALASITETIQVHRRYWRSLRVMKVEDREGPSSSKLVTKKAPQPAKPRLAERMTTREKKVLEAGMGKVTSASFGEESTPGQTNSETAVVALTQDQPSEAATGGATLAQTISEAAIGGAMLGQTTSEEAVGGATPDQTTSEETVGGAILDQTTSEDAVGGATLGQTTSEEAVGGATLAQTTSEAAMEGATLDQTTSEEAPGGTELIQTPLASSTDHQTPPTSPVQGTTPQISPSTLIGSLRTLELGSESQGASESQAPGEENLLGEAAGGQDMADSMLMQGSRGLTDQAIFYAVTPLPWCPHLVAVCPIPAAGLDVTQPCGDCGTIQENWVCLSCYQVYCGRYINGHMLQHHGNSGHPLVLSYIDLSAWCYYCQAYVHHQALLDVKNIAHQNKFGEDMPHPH
Procedure: Measurement of acetylation activity in cells on substrates:
ELISA assay of acetylation of α-tubulin
This assay is used to measure in vivo inhibition of HDAC6 in a cytoblot assay. Materials and Reagent: • 1. 24-well tissue culture • 2. DMEM Medium containing 10% FBS • 3. 96-well white plate • 4. HeLa cell line • 5. M-PER Mammalian Protein Extraction Reagent (Pierce) • 6. Bradford assay reagent • 7. Anti-acetyl-tubulin (Upstate) • 8. HRP-labeled anti-mouse IgG (Upstate) • 9. Coating Buffer: 15 mM Na2CO3, 35 mM NaHCO3 (pH 9.6) • 10. 10×PBS: 0.58 M Na2HPO4, 0.17M NaH2PO4, 0.68M NaCl (pH 7.4) • 11. Wash Buffer:1×PBS containing 0.05% Tween-20 (PBST) • 12. Blocking Buffer:10 mg/ml bocine serum albumin (BSA) in PBS • 13. Antibody Dilution Buffer: 5 mg/ml BSA in PBST • 14. Enhanced chemiluminescence (ECL) (Amersham)
Procedure for performing the assay in 96-well plate: • 1. HeLa cells were seeded at a density of 60000 cells/500 μl/well in 24-well plate and incubated at 37° C. for 24 hours. • 2. Compounds were added and incubated for 24 hours at 37° C. • 3. Culture medium was removed, then washes the cells twice with ice-cold PBS. • 4. Add 100 μl/well of Protein Extraction Reagent and gently shake the mixture for 5 minutes. • 5. Collect the lysate to a 96-well plate respectively. Determine the concentration of protein by Bradford assay. • 6. Coat the wells of a 96-well white plate with 100 μl/well of 2.5 μg whole cell protein in Coating Buffer by incubating overnight at 4° C. • 7. Discard the uncoated proteins and wash the coated wells three times with 200 μl/well of PBST. • 8. Block coated wells by incubating the plate with 200 μl/well of Blocking Buffer for 1 hour at 37° C. • 9. Wells were aspirated and washed three times with 200 μl/well of PBST. • 10. After aspirating, 50 μl/well of Antibody Dilution Buffer containing anti-Ac-tubulin (1:1000) were added to each well and incubated for 2 hour at 37° C. • 11. Wells were aspirated and washed three times with 200 μl/well of PBST. • 12. 50 μl/well of Antibody Dilution Buffer containing HRP-labeled anti-mouse IgG (1:2000) were added to each well and incubated for 2 hour at 37° C. • 13. Wells were aspirated and washed three times with 200 μl/well of PBST. • 14. Wells were washed three times with 200 μl/well of purified water. • 15. Add 50 μl/well of ECL mixture, then read the plates on the plate reader.

[3] = system: HDAC7 (Nur77 reporter gene); assay: HDAC subtype reporter gene assay, Nur77-promoter luciferase in HeLa cells; details: Homo sapiens, M-HeLa, read-out: % of SAHA Response for HDAC7 at 10 μM (Nur77 reporter gene), 24 hours
Procedure: as §1

SMILES	fold induction at 10 µM [2]	Emax at 10 µM [1]	Emax at 10 µM [3]
Cc1[nH]c(/C=N/N=C2\C(=O)Nc3ccc(F)cc32)c(C)c1C(=O)NCCCCCCCC(=O)NO [Example 26, 8-(5-(((5-fluoro-2-oxoindolin-3-ylidene)hydrazono)methyl)-2,4-dimethyl-1H-pyrrole-3-carboxamido)-N-hydroxyoctanamide]	1.85	53%	11%
O=C(CCCCCNC(=O)c1ccc(/C=N/N=C2\C(=O)Nc3ccc(F)cc32)cc1)NO [Example 31, 6-(4-(((5-fluoro-2-oxoindolin-3-ylidene)hydrazono)methyl)benzamido)-N-hydroxyhexanamide]	1.88	39%	8%
Nc1ccccc1NC(=O)CCCCCNC(=O)c1ccc(/C=N/N=C2\C(=O)Nc3ccc(F)cc32)cc1 [Example 32, 6-(4-(((5-fluoro-2-oxoindolin-3-ylidene)hydrazono)methyl)benzamido)-N-(2-aminophenyl)hexanamide]	2.59	17%	5%
Nc1ccccc1NC(=O)CCCCCCCNC(=O)c1ccc(/C=N/N=C2\C(=O)Nc3ccc(F)cc32)cc1 [Example 35, 8-(4-(((5-fluoro-2-oxoindolin-3-ylidene)hydrazono)methyl)benzamido)-N-(2-aminophenyl)octanamide]	1.39	56%	13%
Nc1cc(F)ccc1NC(=O)CCCCCCCNC(=O)c1ccc(/C=N/N=C2\C(=O)Nc3ccc(F)cc32)cc1 [Example 36, 8-(4-(((5-fluoro-2-oxoindolin-3-ylidene)hydrazono)methyl)benzamido)-N-(2-amino-4-fluorophenyl)octanamide]	1.57	9%	7%
Nc1ccccc1NC(=O)CCCCCNC(=O)c1ccc(/C=C2\C(=O)Nc3ccc(F)cc32)cc1 [Example 39, 6-(4-((5-fluoro-2-oxoindolin-3-ylidene)methyl)benzamido)-N-(2-aminophenyl)hexanamide]	0.93	67%	29%
Nc1cc(F)ccc1NC(=O)CCCCCNC(=O)c1ccc(/C=C2\C(=O)Nc3ccc(F)cc32)cc1 [Example 40, 6-(4-((5-fluoro-2-oxoindolin-3-ylidene)methyl)benzamido)-N-(2-amino-4-fluorophenyl)hexanamide]	1.04	19%	9%

Further lines, with some results ahead:

fold induction at 10 µM [2]	SMILES	Emax at 10 µM [1]	Emax at 10 µM [3]
1.03	Cc1[nH]c(/C=N/N=C2\C(=O)Nc3ccc(F)cc32)c(C)c1C(=O)NCCCCC(=O)Nc1ccccc1N [Example 7, 5-(5-(((5-fluoro-2-oxoindolin-3-ylidene)hydrazono)methyl)-2,4-dimethyl-1H-pyrrole-3-carboxamido)-N-(2-aminophenyl)pentanamide]	11%	3%
1.76	Cc1[nH]c(/C=N/N=C2\C(=O)Nc3ccc(F)cc32)c(C)c1C(=O)NCCCCC(=O)Nc1ccc(F)cc1N [Example 8, 5-(5-(((5-fluoro-2-oxoindolin-3-ylidene)hydrazono)methyl)-2,4-dimethyl-1H-pyrrole-3-carboxamido)-N-(2-amino-4-fluorophenyl)pentanamide]	7%	4%
2.17	Cc1[nH]c(/C=N/N=C2\C(=O)Nc3ccc(F)cc32)c(C)c1C(=O)NCCCCCC(=O)NO [Example 11, 6-(5-(((5-fluoro-2-oxoindolin-3-ylidene)hydrazono)methyl)-2,4-dimethyl-1H-pyrrole-3-carboxamido)-N-hydroxyhexanamide]	52%	9%
2.04	Cc1[nH]c(/C=N/N=C2\C(=O)Nc3ccc(F)cc32)c(C)c1C(=O)NCCCCCC(=O)Nc1ccc(F)cc1N [Example 12, 6-(5-(((5-fluoro-2-oxoindolin-3-ylidene)hydrazono)methyl)-2,4-dimethyl-1H-pyrrole-3-carboxamido)-N-(2-amino-4-fluorophenyl)hexanamide]	9%	6%
2.73	Cc1[nH]c(/C=N/N=C2\C(=O)Nc3ccc(F)cc32)c(C)c1C(=O)NCCCCCC(=O)Nc1ccccc1N [Example 13, 6-(5-(((5-fluoro-2-oxoindolin-3-ylidene)hydrazono)methyl)-2,4-dimethyl-1H-pyrrole-3-carboxamido)-N-(2-aminophenyl)hexanamide]	18%	5%
1.64	Cc1[nH]c(/C=N/N=C2\C(=O)Nc3ccc(F)cc32)c(C)c1C(=O)NCCCCCCCC(=O)Nc1ccc(F)cc1N [Example 27, 8-(5-(((5-fluoro-2-oxoindolin-3-ylidene)hydrazono)methyl)-2,4-dimethyl-1H-pyrrole-3-carboxamido)-N-(2-amino-4-fluorophenyl)octanamide]	8%	6%
1.74	Cc1[nH]c(/C=N/N=C2\C(=O)Nc3ccc(F)cc32)c(C)c1C(=O)NCCCCCCCC(=O)Nc1ccccc1N [Example 28, 8-(5-(((5-fluoro-2-oxoindolin-3-ylidene)hydrazono)methyl)-2,4-dimethyl-1H-pyrrole-3-carboxamido)-N-(2-aminophenyl)octanamide]	36%	16%
